Reference: PubChem BioAssay AID282 (DTP/NCI, 2004)
“And” between values parts separate entries of the source, which are not always exact repeats. Equal values may be shown once. Toxic doses and inconclusive results are not listed. Starred links: 1 amine or outer side, 2 acyl side, 3 side chain; linkers in the order of their positions; H or OH if unused. Positions of bridges follow the written chain, without caps; N, C: chain ends. Non-standard residues stand in square brackets, D forms with d. Residues, ends and D or L forms follow the SMILES beside them. Chains are numbered I, II in the order given. Actinocin(9to1) = Cc1c2oc3c(C)ccc(C(=O)[*:1])c3nc-2c(C(=O)[*:2])c(N)c1=O; aThr = C[C@H](O)[C@H](N)C(=O)O; NMeV = CN[C@H](C(=O)O)C(C)C; Sar = CNCC(=O)O

System: BDF1 mice, L1210 terephthalanilide-resistant leukemia ip, survival T/C
Assay: NCI In Vivo Anticancer Drug Screen. Data for tumor model L1210 Leukemia resistant to A Terephthalanilide; NSC 38280 (intraperitoneal) in B6D2F1 (BDF1) mice
Conditions: endpoint: mean survival time, higher = longer survival
Description: The antitumor activity of compounds was measured in mice bearing transplantable tumors. Survival or tumor size were measured and the results are expressed as the measurement made in the treated group (T) divided by the measurement made in the vehicle treated control group (C). The tumor model used in this assay is L1210 Leukemia resistant to A Terephthalanilide; NSC 38280 (intraperitoneal) in B6D2F1 (BDF1) mice

[1] = dose: 1.0 mg/kg/injection, schedule: Q01DX Z (ip), vehicle: carboxymethylcellulose (CMC)
[2] = dose: 5.0 mg/kg/injection, schedule: Q01DX Z (ip), vehicle: carboxymethylcellulose (CMC)
[3] = dose: 6.25 mg/kg/injection, schedule: Q01DX010 (ip), vehicle: saline
[4] = dose: 7.5 mg/kg/injection, schedule: Q01DX Z (ip), vehicle: carboxymethylcellulose (CMC)
[5] = dose: 10.0 mg/kg/injection, schedule: Q01DX Z (ip), vehicle: carboxymethylcellulose (CMC)
[6] = dose: 12.5 mg/kg/injection, schedule: Q01DX010 (ip), vehicle: saline
[7] = dose: 25.0 mg/kg/injection, schedule: Q01DX010 (ip), vehicle: saline
[8] = dose: 20.0 mg/kg/injection, schedule: Q01DX010 (ip), vehicle: saline
[9] = dose: 40.0 mg/kg/injection, schedule: Q01DX010 (ip), vehicle: saline
[10] = dose: 25.0 mg/kg/injection, schedule: Q01DX Z (ip), vehicle: carboxymethylcellulose (CMC)
[11] = dose: 50.0 mg/kg/injection, schedule: Q01DX Z (ip), vehicle: carboxymethylcellulose (CMC)
[12] = dose: 100.0 mg/kg/injection, schedule: Q01DX Z (ip), vehicle: carboxymethylcellulose (CMC)
[13] = dose: 200.0 mg/kg/injection, schedule: Q01DX Z (ip), vehicle: carboxymethylcellulose (CMC)
[14] = dose: 250.0 mg/kg/injection, schedule: Q01DX Z (ip), vehicle: carboxymethylcellulose (CMC)
[15] = dose: 2.5 mg/kg/injection, schedule: Q01DX Z (ip), vehicle: carboxymethylcellulose (CMC)
[16] = dose: 5.0 mg/kg/injection, schedule: Q01DX010 (ip), vehicle: saline
[17] = dose: 10.0 mg/kg/injection, schedule: Q01DX010 (ip), vehicle: saline
[18] = dose: 62.5 mg/kg/injection, schedule: Q01DX010 (ip), vehicle: saline
[19] = dose: 125.0 mg/kg/injection, schedule: Q01DX010 (ip), vehicle: saline
[20] = dose: 250.0 mg/kg/injection, schedule: Q01DX010 (ip), vehicle: saline
[21] = dose: 4.0 mg/kg/injection, schedule: Q01DX010 (ip), vehicle: saline
[22] = dose: 15.0 mg/kg/injection, schedule: Q01DX010 (ip), vehicle: saline

Structure (SMILES): Cc1c2oc3c(C)ccc(C(=O)N[C@@H]4C(=O)N[C@H](C(C)C)C(=O)N5CCC[C@H]5C(=O)N(C)CC(=O)N(C)[C@@H](C(C)C)C(=O)O[C@H]4C)c3nc-2c(C(=O)N[C@@H]2C(=O)N[C@H](C(C)C)C(=O)N3CCC[C@H]3C(=O)N(C)CC(=O)N(C)[C@@H](C(C)C)C(=O)O[C@H]2C)c(N)c1=O (I: [aThr][dV]P[Sar][NMeV] / II: [aThr][dV]P[Sar][NMeV]; ester I:1-I:C, II:1-II:C; linker I:N-II:N via Actinocin(9to1))
- T/C (dose: 12.5 micrograms/kg/injection, schedule: Q01DX010 (ip), vehicle: other): 117 % of control and 118 % of control
- T/C (dose: 25.0 micrograms/kg/injection, schedule: Q01DX010 (ip), vehicle: other): 121 % of control and 118 % of control
- T/C (dose: 50.0 micrograms/kg/injection, schedule: Q01DX010 (ip), vehicle: other): 124 % of control and 117 % of control
- T/C (dose: 100.0 micrograms/kg/injection, schedule: Q01DX010 (ip), vehicle: other): 95 % of control and 103 % of control

Structure (SMILES): N=[N+]=CC(=O)OCC(N)C(=O)O (stereo unspecified)
- T/C [1]: 122 % of control
- T/C (dose: 3.75 mg/kg/injection, schedule: Q01DX Z (ip), vehicle: carboxymethylcellulose (CMC)): 168 % of control
- T/C [2]: 171 % of control
- T/C [3]: 156 % of control
- T/C [4]: 183 % of control
- T/C [5]: 174 % of control
- T/C [6]: 118 % of control
- T/C [7]: 97 % of control
- T/C (dose: 30.0 mg/kg/injection, schedule: Q01DX Z (ip), vehicle: carboxymethylcellulose (CMC)): 115 % of control

Structure (SMILES): OCC1OC(n2cnc3c(=S)nc[nH]c32)C(O)C1O (stereo unspecified)
- T/C [8]: 111 % of control
- T/C [9]: 119 % of control
- T/C (dose: 160.0 mg/kg/injection, schedule: Q01DX010 (ip), vehicle: saline): 162 % of control

Structure (SMILES): CS(=O)(=O)OCCCCOS(C)(=O)=O
- T/C [3]: 98 % of control and 103 % of control
- T/C [6]: 100 % of control and 102 % of control
- T/C [7]: 93 % of control and 102 % of control
- T/C (dose: 50.0 mg/kg/injection, schedule: Q01DX010 (ip), vehicle: saline): 98 % of control and 100 % of control

Structure (SMILES): CS(=O)(=O)OCC(O)C(O)COS(C)(=O)=O (stereo unspecified)
- T/C [10]: 107 % of control
- T/C [11]: 103 % of control
- T/C [12]: 103 % of control
- T/C (dose: 200.0 mg/kg/injection, schedule: Q01DX010 (ip), vehicle: saline): 101 % of control
- T/C [13]: 101 % of control
- T/C [14]: 100 % of control
- T/C (dose: 375.0 mg/kg/injection, schedule: Q01DX Z (ip), vehicle: carboxymethylcellulose (CMC)): 111 % of control
- T/C (dose: 400.0 mg/kg/injection, schedule: Q01DX010 (ip), vehicle: saline): 97 % of control
- T/C (dose: 800.0 mg/kg/injection, schedule: Q01DX010 (ip), vehicle: saline): 91 % of control

Structure (SMILES): Nc1nc(=S)c2[nH]cnc2[nH]1
- T/C (dose: 0.5 mg/kg/injection, schedule: Q01DX Z (ip), vehicle: carboxymethylcellulose (CMC)): 165 % of control
- T/C [1]: 158 % of control
- T/C (dose: 1.25 mg/kg/injection, schedule: Q01DX010 (ip), vehicle: saline): 156 % of control
- T/C (dose: 2.5 mg/kg/injection, schedule: Q01DX010 (ip), vehicle: saline): 173 % of control
- T/C [15]: 159 % of control
- T/C [16]: 108 % of control and 113 % of control
- T/C [2]: 109 % of control
- T/C [17]: 90 % of control and 98 % of control
- T/C [5]: 96 % of control and 116 % of control
- T/C (dose: 15.0 mg/kg/injection, schedule: Q01DX Z (ip), vehicle: carboxymethylcellulose (CMC)): 106 % of control
- T/C (dose: 20.0 mg/kg/injection, schedule: Q01DX Z (ip), vehicle: carboxymethylcellulose (CMC)): 96 % of control and 101 % of control
- T/C (dose: 31.0 micrograms/kg/injection, schedule: Q01DX Z (ip), vehicle: carboxymethylcellulose (CMC)): 107 % of control
- T/C (dose: 125.0 micrograms/kg/injection, schedule: Q01DX Z (ip), vehicle: carboxymethylcellulose (CMC)): 110 % of control

Structure (SMILES): O=NN(CCCl)C(=O)NCCCl
- T/C [3]: 224 % of control
- T/C [6]: 105 % of control
- T/C [7]: 89 % of control

Structure (SMILES): O=c1cn[nH]c(=O)[nH]1
- T/C (dose: 62.0 mg/kg/injection, schedule: Q01DX Z (ip), vehicle: carboxymethylcellulose (CMC)): 101 % of control
- T/C [18]: 97 % of control and 101 % of control
- T/C [19]: 97 % of control and 105 % of control
- T/C (dose: 125.0 mg/kg/injection, schedule: Q01DX Z (ip), vehicle: carboxymethylcellulose (CMC)): 101 % of control
- T/C [20]: 106 % of control and 113 % of control
- T/C [14]: 106 % of control
- T/C (dose: 500.0 mg/kg/injection, schedule: Q01DX010 (ip), vehicle: saline): 123 % of control and 115 % of control
- T/C (dose: 500.0 mg/kg/injection, schedule: Q01DX Z (ip), vehicle: carboxymethylcellulose (CMC)): 113 % of control

Structure (SMILES): CCN(CC)c1ccc2cc3ccc(=[N+](CC)CC)cc-3oc2c1
- T/C (dose: 1.0 mg/kg/injection, schedule: Q01DX010 (ip), vehicle: saline): 98 % of control
- T/C (dose: 2.0 mg/kg/injection, schedule: Q01DX010 (ip), vehicle: saline): 91 % of control
- T/C [21]: 96 % of control

Structure (SMILES): O=C(Nc1ccc(C(=O)Nc2ccc(C3=NCCCN3)cc2)cc1)Nc1ccc(C2=NCCCN2)cc1
- T/C (dose: 1.88 mg/kg/injection, schedule: Q01DX010 (ip), vehicle: saline): 93 % of control and 108 % of control
- T/C (dose: 3.75 mg/kg/injection, schedule: Q01DX010 (ip), vehicle: saline): 95 % of control and 114 % of control
- T/C (dose: 7.5 mg/kg/injection, schedule: Q01DX010 (ip), vehicle: saline): 122 % of control and 119 % of control
- T/C [22]: 117 % of control

Structure (SMILES): C[C@@H]1C[C@@H]([C@H](O)CC2CC(=O)NC(=O)C2)C(=O)[C@@H](C)C1
- T/C (dose: 1.25 mg/kg/injection, schedule: Q01DX Z (ip), vehicle: saline): 101 % of control
- T/C (dose: 2.5 mg/kg/injection, schedule: Q01DX Z (ip), vehicle: saline): 107 % of control
- T/C [16]: 100 % of control and 105 % of control
- T/C (dose: 5.0 mg/kg/injection, schedule: Q01DX Z (ip), vehicle: saline): 106 % of control
- T/C (dose: 7.5 mg/kg/injection, schedule: Q01DX Z (ip), vehicle: saline): 107 % of control
- T/C [17]: 123 % of control and 113 % of control
- T/C [8]: 113 % of control and 117 % of control
- T/C [9]: 115 % of control

Structure (SMILES): CSc1ncnc2c1ncn2C1OC(CO)C(O)C1O (stereo unspecified)
- T/C [21]: 105 % of control
- T/C (dose: 5.5 mg/kg/injection, schedule: Q01DX Z (ip), vehicle: saline): 117 % of control
- T/C (dose: 8.0 mg/kg/injection, schedule: Q01DX010 (ip), vehicle: saline): 116 % of control
- T/C [22]: 151 % of control
- T/C (dose: 16.0 mg/kg/injection, schedule: Q01DX010 (ip), vehicle: saline): 122 % of control
- T/C [8]: 162 % of control
- T/C (dose: 37.5 mg/kg/injection, schedule: Q01DX Z (ip), vehicle: saline): 154 % of control
- T/C (dose: 50.0 mg/kg/injection, schedule: Q01DX Z (ip), vehicle: saline): 101 % of control
- T/C (dose: 75.0 mg/kg/injection, schedule: Q01DX Z (ip), vehicle: saline): 88 % of control

Structure (SMILES): S=c1nc[nH]c2nc[nH]c12
- T/C [15]: 120 % of control
- T/C [4]: 165 % of control
- T/C [5]: 172 % of control
- T/C (dose: 12.5 mg/kg/injection, schedule: Q01DX Z (ip), vehicle: carboxymethylcellulose (CMC)): 156 % of control
- T/C [10]: 152 % of control
- T/C (dose: 62.5 mg/kg/injection, schedule: Q01DX Z (ip), vehicle: carboxymethylcellulose (CMC)): 120 % of control
- T/C [12]: 107 % of control

Structure (SMILES): S=P(N1CC1)(N1CC1)N1CC1
- T/C (dose: 0.75 mg/kg/injection, schedule: Q01DX010 (ip), vehicle: saline): 97 % of control and 115 % of control
- T/C (dose: 1.5 mg/kg/injection, schedule: Q01DX010 (ip), vehicle: saline): 124 % of control and 105 % of control
- T/C (dose: 3.0 mg/kg/injection, schedule: Q01DX010 (ip), vehicle: saline): 118 % of control
- T/C (dose: 6.0 mg/kg/injection, schedule: Q01DX010 (ip), vehicle: saline): 94 % of control and 100 % of control

Structure (SMILES): O=C1CCC(N2C(=O)c3ccccc3C2=O)C(=O)N1 (stereo unspecified)
- T/C (dose: 31.3 mg/kg/injection, schedule: Q01DX010 (ip), vehicle: saline): 94 % of control
- T/C [18]: 96 % of control
- T/C [19]: 94 % of control
- T/C [20]: 100 % of control

Structure (SMILES): Cn1c(O)c(N=NC(N)=S)c2ccccc21
- T/C [10]: 93 % of control
- T/C [11]: 90 % of control
- T/C [12]: 87 % of control
- T/C [13]: 89 % of control
